This note sets out measurements from ChEMBL document CHEMBL1139043, “Carbonic anhydrase inhibitors. Inhibition studies of the human secretory isoform VI with anions” (Bioorg Med Chem Lett, 2007).

The experiment addresses Carbonic anhydrase 6 (Homo sapiens) (UniProt P23280).

Sequence of Carbonic anhydrase 6 (Homo sapiens) (P23280 whole entry): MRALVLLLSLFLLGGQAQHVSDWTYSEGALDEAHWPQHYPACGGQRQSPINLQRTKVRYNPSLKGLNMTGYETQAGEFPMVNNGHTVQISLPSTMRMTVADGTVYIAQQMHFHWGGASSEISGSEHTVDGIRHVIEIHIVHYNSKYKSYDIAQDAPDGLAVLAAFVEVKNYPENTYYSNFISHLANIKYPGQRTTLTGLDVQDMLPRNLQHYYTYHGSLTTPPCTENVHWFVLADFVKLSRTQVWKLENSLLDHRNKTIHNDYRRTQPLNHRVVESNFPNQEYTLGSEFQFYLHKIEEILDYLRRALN
Description: Inhibition of full length human recombinant full length CA6 expressed in Escherichia coli BL21 by CO2 hydration method

In the case of `NS(=O)(=O)O`, the Kinact was found to be 0.09 mM.
To `O=[As](O)(O)c1ccccc1` belongs 13.9 mM.
